Data as given in ChEMBL document CHEMBL5465560, “Selectivity Literature for EUbOPEN Chemogenomic Library” (2024).
Each block holds one compound with its values, some of them ahead of it.

Experiments:
[1] = biological target: T1, Mitogen-activated protein kinase 12 (Homo sapiens) (UniProt P53778); conditions: at 10 µM
T1 sequence (whole entry): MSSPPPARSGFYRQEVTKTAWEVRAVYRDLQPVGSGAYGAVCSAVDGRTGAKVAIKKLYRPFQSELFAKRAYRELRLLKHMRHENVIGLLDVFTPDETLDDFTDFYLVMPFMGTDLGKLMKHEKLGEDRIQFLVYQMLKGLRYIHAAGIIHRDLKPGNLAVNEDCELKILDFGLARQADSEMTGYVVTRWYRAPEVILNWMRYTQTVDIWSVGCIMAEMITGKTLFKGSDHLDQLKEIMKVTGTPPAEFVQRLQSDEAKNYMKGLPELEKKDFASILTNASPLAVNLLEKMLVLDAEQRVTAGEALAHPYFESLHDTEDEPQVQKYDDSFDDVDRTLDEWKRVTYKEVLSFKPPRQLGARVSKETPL

[2] = biological target: T2, Inhibitor of nuclear factor kappa-B kinase subunit epsilon (Homo sapiens) (UniProt Q14164); assay: Selectivity interaction (ActivX KiNativ screen (kinase selectivity in THP-1 cell lysates)) EUB0000639a IKBKE; assay type: subcellular; conditions: lysate
T2 sequence (whole entry): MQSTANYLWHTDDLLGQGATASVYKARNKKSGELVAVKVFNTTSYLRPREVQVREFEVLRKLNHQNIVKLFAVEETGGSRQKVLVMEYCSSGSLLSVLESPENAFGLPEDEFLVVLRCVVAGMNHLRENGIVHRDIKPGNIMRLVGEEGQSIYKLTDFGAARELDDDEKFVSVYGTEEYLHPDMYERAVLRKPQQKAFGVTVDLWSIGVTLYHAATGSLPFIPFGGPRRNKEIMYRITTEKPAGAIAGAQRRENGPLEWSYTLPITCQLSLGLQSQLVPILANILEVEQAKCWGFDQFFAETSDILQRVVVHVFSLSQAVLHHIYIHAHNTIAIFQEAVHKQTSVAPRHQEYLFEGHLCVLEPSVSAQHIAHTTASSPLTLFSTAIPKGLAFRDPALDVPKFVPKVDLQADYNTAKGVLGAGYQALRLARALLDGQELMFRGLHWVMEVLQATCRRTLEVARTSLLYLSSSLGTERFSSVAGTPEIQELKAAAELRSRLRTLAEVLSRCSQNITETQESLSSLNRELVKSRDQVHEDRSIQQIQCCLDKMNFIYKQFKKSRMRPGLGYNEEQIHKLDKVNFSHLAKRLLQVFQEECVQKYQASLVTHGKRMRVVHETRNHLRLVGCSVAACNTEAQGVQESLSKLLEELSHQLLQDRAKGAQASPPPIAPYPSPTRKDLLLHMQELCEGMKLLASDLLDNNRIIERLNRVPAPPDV

[3] = biological target: ATPase family AAA domain-containing protein 2 (Homo sapiens) (UniProt Q6PL18); assay: Selectivity interaction (Bromodomain panel (DSF asssay)) EUB0000270b ATAD2
[4] = biological target: Gamma-aminobutyric acid type B receptor subunit 1 (Homo sapiens) (UniProt Q9UBS5); assay: Selectivity interaction (Eurofins CEREP Diversity Profile (receptors and ion channels)) EUB0000279b GABBR1; conditions: at 10 µM
[5] = biological target: T3, Serine/threonine-protein kinase Sgk1 (Homo sapiens) (UniProt O00141); assay: Selectivity interaction (SelectScreen profiling (Invitrogen)) EUB0000607a SGK1; conditions: at 2 µM
T3 sequence (whole entry): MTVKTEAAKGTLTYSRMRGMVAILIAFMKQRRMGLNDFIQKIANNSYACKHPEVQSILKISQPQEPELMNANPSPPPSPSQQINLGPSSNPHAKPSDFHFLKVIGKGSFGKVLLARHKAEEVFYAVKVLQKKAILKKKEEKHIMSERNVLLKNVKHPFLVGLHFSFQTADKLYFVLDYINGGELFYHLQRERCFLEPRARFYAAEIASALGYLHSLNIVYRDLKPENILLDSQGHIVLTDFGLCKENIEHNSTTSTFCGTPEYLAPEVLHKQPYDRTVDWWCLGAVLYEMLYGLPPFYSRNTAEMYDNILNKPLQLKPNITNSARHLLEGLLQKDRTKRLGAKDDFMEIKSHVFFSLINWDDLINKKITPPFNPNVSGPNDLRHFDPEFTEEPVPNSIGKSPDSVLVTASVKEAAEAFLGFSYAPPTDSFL

[6] = biological target: Cyclin-dependent kinase 5 (Homo sapiens, UniProt Q00535); assay: Selectivity interaction (Kinase panel (KiNativ target engagement assay in Jurkat cells)) EUB0001635a CDK5; assay type: cell-based; conditions: at 1 µM
Cyclin-dependent kinase 5, sequence (Q00535 whole entry, looked up): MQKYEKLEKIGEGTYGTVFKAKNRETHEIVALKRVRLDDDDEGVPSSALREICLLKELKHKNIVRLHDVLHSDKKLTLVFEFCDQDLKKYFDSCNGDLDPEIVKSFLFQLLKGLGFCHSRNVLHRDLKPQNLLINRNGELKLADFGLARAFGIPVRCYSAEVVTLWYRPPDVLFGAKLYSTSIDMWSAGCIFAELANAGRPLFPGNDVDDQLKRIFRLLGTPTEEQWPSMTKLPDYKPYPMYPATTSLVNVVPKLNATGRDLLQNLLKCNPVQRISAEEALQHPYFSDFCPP

Gamma-aminobutyric acid type B receptor subunit 1 (Homo sapiens), sequence (Q9UBS5 whole entry): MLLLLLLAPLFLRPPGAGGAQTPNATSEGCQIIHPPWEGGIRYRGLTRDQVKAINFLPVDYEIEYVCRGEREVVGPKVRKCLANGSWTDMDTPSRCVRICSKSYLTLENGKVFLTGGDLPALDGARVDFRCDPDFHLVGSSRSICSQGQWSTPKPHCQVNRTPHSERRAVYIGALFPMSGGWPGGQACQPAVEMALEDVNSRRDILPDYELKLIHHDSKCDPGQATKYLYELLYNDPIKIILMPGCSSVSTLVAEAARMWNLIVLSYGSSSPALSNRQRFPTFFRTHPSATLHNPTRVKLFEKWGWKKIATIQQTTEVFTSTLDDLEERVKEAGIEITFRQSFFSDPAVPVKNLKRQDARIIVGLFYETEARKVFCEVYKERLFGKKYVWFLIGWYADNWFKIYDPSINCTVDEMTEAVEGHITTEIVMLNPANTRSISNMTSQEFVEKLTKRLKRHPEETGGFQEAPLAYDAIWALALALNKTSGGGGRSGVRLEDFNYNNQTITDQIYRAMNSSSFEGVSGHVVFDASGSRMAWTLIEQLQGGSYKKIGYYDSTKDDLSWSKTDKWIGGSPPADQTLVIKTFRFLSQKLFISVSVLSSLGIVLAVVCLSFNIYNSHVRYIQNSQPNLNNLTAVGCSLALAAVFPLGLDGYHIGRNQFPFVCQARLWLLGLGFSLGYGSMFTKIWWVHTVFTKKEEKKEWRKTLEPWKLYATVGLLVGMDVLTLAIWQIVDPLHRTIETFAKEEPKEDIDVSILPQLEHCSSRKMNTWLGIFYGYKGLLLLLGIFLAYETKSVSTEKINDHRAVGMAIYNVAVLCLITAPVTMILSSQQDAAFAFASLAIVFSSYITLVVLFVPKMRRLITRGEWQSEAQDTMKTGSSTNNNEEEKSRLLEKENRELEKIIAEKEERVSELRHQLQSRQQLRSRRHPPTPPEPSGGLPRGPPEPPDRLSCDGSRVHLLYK
ATPase family AAA domain-containing protein 2 (Homo sapiens), sequence (Q6PL18 whole entry, the tested form may be a part): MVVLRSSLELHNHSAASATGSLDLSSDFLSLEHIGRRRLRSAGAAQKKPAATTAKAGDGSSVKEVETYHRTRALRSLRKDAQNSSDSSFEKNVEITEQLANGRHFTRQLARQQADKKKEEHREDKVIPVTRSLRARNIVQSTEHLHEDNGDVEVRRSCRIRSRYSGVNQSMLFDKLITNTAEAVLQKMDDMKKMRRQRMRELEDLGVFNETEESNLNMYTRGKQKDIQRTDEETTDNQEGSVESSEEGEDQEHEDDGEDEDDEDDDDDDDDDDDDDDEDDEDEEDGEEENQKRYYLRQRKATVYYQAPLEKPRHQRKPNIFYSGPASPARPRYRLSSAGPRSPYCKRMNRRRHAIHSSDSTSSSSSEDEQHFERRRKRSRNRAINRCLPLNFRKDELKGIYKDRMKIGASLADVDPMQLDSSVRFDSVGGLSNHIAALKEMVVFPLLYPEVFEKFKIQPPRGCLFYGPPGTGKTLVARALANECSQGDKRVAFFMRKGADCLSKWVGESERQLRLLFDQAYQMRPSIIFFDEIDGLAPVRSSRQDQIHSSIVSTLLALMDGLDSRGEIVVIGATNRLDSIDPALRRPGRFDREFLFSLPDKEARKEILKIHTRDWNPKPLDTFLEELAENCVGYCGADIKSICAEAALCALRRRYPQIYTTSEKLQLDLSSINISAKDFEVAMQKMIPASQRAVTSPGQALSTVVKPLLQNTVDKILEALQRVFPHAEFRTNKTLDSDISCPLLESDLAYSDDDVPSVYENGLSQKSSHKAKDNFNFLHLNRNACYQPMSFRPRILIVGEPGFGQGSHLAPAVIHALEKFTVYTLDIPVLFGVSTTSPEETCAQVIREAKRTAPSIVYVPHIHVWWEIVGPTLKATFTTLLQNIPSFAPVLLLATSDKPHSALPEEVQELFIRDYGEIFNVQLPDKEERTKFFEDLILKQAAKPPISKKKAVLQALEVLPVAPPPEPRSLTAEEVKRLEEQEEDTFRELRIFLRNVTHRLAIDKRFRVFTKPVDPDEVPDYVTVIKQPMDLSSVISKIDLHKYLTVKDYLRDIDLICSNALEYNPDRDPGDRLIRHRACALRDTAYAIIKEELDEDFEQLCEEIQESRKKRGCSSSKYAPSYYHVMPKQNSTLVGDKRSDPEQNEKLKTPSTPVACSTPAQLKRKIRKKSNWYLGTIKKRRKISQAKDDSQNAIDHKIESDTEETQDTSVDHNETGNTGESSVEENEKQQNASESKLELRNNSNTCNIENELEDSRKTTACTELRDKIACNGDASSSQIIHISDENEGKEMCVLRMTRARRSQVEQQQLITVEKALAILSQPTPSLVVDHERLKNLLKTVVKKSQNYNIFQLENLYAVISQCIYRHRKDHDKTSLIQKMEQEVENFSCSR

SMILES: Cc1cc([C@@H](C)Nc2ccccc2C(=O)O)c2nc(N3CCOCC3)cc(=O)n2c1 [AZD-6482]
% of control [1]: 94%

% of inhibition ([2]; at 0.01 µM): 20.6%
% of inhibition ([2]; at 0.04 µM): 7.3%
% of inhibition ([2]; at 0.2 µM): 30.8%
% of inhibition ([2]; at 1 µM): 60.2%
% of inhibition ([2]; at 5 µM): 82.3%
SMILES: CC[C@@H]1[C@H](F)C(=O)N[C@@H]1COc1nccc2cc(C(N)=O)c(OC)cc12 [ZIMLOVISERTIB]

dTM [3]: -1.82 K
SMILES: Cc1cc(CN)cc(C)c1-c1ncn(C)c1-c1cncn1C

% of control [4]: 100%
SMILES: CC(=O)c1cc(-c2ccccc2OCC2CC2)c2ncccn12

SMILES: CNC(=O)Nc1ccc(-c2nc(N3CC4CCC(C3)O4)c3cnn(C4CCC5(CC4)OCCO5)c3n2)cc1
% of inhibition [5]: -2%

SMILES: C=CC(=O)Nc1ccc(C(=O)Nc2[nH]nc3c2CN(C(=O)N[C@H](CN(C)C)c2ccccc2)C3(C)C)cc1
% of engagement ([6]; Selectivity number of off-targets 0.0, Selectivity number of targets 233.0, Source Knowledge https://www.sciencedirect.com/science/article/pii/S2451945619300674?via%3Dihub): -1.7%
% of engagement [6]: 0.4%
